Reference: patent publication US7629349B2, “Pyrazolo [3,4-d] pyrimidine derivatives and their use as purinergic receptor antagonists” (Vernalis Research Limited, priority 2001, dated 2009)
Counter-ions that a name gives are not always drawn. Like-named read-outs stand apart in the source and are kept apart here. Values belong to the compound of their own block, whether it stands above or below them.

Assays:
[1] = biological target: human adenosine A2A receptor (Homo sapiens, UniProt P29274); experiment: Binding affinities at hA2A receptors, displacement of [3H]-CGS 21680
catalepsy = conditions: cited from earlier work
Parkinsonian patients = conditions: cited from earlier work
[2] = human adenosine A2A receptor, radioligand [3H]-CGS 21680

human adenosine A2A receptor, sequence (P29274 whole entry): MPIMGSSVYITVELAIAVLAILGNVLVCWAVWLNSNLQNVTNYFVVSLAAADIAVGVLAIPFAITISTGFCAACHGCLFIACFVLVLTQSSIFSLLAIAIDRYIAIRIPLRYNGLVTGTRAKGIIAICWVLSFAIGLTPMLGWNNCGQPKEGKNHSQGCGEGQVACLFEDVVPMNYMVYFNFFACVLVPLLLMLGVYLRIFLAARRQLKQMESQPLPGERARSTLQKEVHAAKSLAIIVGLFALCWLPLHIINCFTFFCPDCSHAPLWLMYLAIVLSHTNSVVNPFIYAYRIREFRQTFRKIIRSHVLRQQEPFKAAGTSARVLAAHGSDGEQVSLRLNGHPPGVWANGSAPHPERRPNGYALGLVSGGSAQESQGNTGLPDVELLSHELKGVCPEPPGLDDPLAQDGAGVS

SMILES: Nc1nc(-c2ccco2)c2cnn(Cc3ccccc3Cl)c2n1 [Example 11, 1-(2-chlorobenzyl)-4-(2-furyl)-1H-pyrazolo[3,4-d]pyrimidine-6-amine]
Ki [1, 2]: 9 nM

SMILES: COc1cccc(Cn2ncc3c(-c4ccco4)nc(N)nc32)c1 [Example 12, 4-(2-furyl)-1-(3-methoxybenzyl)-1H-pyrazolo[2,4-d]pyrimidine-6-amine]
Ki [1, 2]: 2 nM

SMILES: Nc1nc(-c2ccco2)c2cnn(Cc3ccc(C(F)(F)F)cc3)c2n1 [Example 22, 4-(2-furyl)-1-(4-trifluoromethylbenzyl)-1H-pyrazolo[3,4-d]pyrimidine-6-amine]
Ki [1, 2]: 6 nM

SMILES: CCOC(=O)Cn1ncc2c(-c3ccco3)nc(N)nc21 [Example 26, ethyl 6-amino-4-(2-furyl)-1H-pyrazolo[3,4-d]pyrimidine-1-ylacetate]
melting point: 177 to 177.1 °C

SMILES: Nc1nc(-c2cccs2)c2cnn(Cc3ccccc3F)c2n1 [Example 28, 1-(2-fluorobenzyl)-4-(2-thienyl)-1H-pyrazolo[3,4-d]pyrimidine-6-amine]
Ki [1]: 5 nM

SMILES: Nc1nc(-c2ccco2)c2cnn(CCCc3ccccc3)c2n1 [Example 31, 4-(2-furyl)-1-(3-phenylpropyl)-1H-pyrazolo[3,4-d]pyrimidine-6-amine]
Ki [1]: 2 nM

SMILES: Nc1cccc(Cn2ncc3c(-c4ccco4)nc(N)nc32)c1 [Example 32, 1-(3-aminobenzyl)-4-(2-furyl)-1H-pyrazolo[3,4-d]pyrimidine-6-amine]
Ki [1, 2]: 4 nM

SMILES: Nc1nc(-c2ccco2)c2cnn(CC(=O)NCCc3ccccc3)c2n1 [Example 44, 6-amino-4-(2-furyl)-N-(2-phenylethyl)-1H-pyrazolo[3,4-d]pyrimidin-1-ylacetamide]
melting point: 231.1 to 231.2 °C

SMILES: Nc1nc(-c2ccn[nH]2)c2cnn(Cc3ccccc3F)c2n1 [Example 55, 1-(2-fluorobenzyl)-4-(3-pyrazolyl)-1H-pyrazolo[3,4-d]pyrimidine-6-amine]
Ki [1, 2]: 16 nM

SMILES: Nc1nc(-c2ccco2)c2cnn(Cc3ccccc3N)c2n1 [Example 56, 1-(2-aminobenzyl)-4-(2-furyl)-1H-pyrazolo[3,4-d]pyrimidine-6-amine]
Ki [1, 2]: 8 nM

SMILES: Nc1nc(-c2ccn[nH]2)c2cnn(Cc3cccc([N+](=O)[O-])c3)c2n1 [Example 59, 1-(3-nitrobenzyl)-4-(3-pyrazolyl)-1H-pyrazolo[3,4-d]pyrimidine-6-amine]
melting point: 278.5 to 279 °C

SMILES: COc1cccc(Cn2ncc3c(-c4ccn[nH]4)nc(N)nc32)c1 [Example 64, 1-(3-methoxybenzyl)-4-(1H-pyrazol-3-yl)-1H-pyrazolo[3,4-d]pyrimidine-6-amine]
melting point: 171 to 172 °C

SMILES: CCCn1c(=O)c2c(nc(/C=C/c3ccc(OC)c(OC)c3)n2C)n(CCC)c1=O [KF 17837, (E)-8-(3,4-dimethoxystyryl)-1,3-dipropyl-7-methylxanthine]
anticataleptic effects of a subthreshold dose of L-DOPA plus benserazide (catalepsy; in vivo): potentiated
catalepsy induced by haloperidol and reserpine (catalepsy; in vivo): reduced
cataleptic responses induced by intracerebroventricular CGS 21680 (catalepsy; oral administration): significantly ameliorated

SMILES: Cn1c(=O)c2[nH]cnc2n(C)c1=O [theophylline, 1,3-dimethylxanthine]
mean objective disability scores (Parkinsonian patients; 15 Parkinsonian patients, up to 12 weeks, 150 mg/day oral): significant improvements
patients reporting moderate or marked subjective improvement (Parkinsonian patients; of 15 Parkinsonian patients, up to 12 weeks, 150 mg/day oral): 11
serum theophylline levels (Parkinsonian patients; slow release oral theophylline preparation 150 mg/day, after one week): 4.44 mg/L

Further lines, results first:

melting point: 191.4 to 191.5 °C
SMILES: CC(C)n1ncc2c(-c3ccco3)nc(N)nc21 (as salt: HCl) [Example 21, 4-(2-furyl)-1-(1-methylethyl)-1H-pyrazolo[3,4-d]pyrimidine-6-amine]

melting point: 218 °C
SMILES: CCCCCn1ncc2c(-c3ccco3)nc(N)nc21 (as salt: HCl) [Example 23, 4-(2-furyl)-1-n-pentyl-1H-pyrazole[3,4-d]pyrimidine-6-amine]

melting point: 249.8 to 249.9 °C
SMILES: Nc1nc(-c2ccco2)c2cnn(CC(=O)Nc3ccccn3)c2n1 (as salt: HCl) [Example 29, 6-amino-4-(2-furyl)-N-(2-pyridyl)-1H-pyrazolo[3,4-d]pyrimidin-1-ylacetamide]

melting point: 85.1 to 85.6 °C
SMILES: Clc1nc(-c2ccco2)c2cnn(CCc3ccccc3)c2n1 [Example 1, 6-chloro-4-(2-furyl)-1-(2-phenylethyl)-1H-pyrazolo[3,4-d]pyrimidine]

melting point: 261.9 to 262.7 °C
SMILES: CC(C)(C)OC(=O)n1ncc2c(-c3ccco3)nc(N)nc21 [Example 4, tert-butyl 6-amino-4-(2-furyl)-1H-pyrazolo[3,4-d]pyrimidine-1-carboxylate]

Ki [1]: 2 nM
SMILES: Nc1nc(-c2ccco2)c2cnn(Cc3ccccc3F)c2n1 [Example 14, 1-(2-fluorobenzyl)-4-(2-furyl)-1H-pyrazolo[3,4-d]pyrimidine-6-amine]

Ki [1]: 2 nM
SMILES: Cc1cccc(Cn2ncc3c(-c4ccco4)nc(N)nc32)c1 [Example 15, 4-(2-furyl)-1-(3-methylbenzyl)-1H-pyrazolo[3,4-d]pyrimidine-6-amine]

Ki [1, 2]: 2 nM
SMILES: Nc1nc(-c2ccco2)c2cnn(Cc3c(F)cccc3F)c2n1 [Example 24, 1-(2,6-difluorobenzyl)-4-(2-furyl)-1H-pyrazolo[3,4-d]pyrimidine-6-amine]

Ki [1, 2]: 4 nM
SMILES: Nc1nc(-c2ccco2)c2cnn(Cc3cccc([N+](=O)[O-])c3)c2n1 [Example 30, 4-(2-furyl)-1-(3-nitrobenzyl)-1H-pyrazolo[3,4-d]pyrimidine-6-amine]

Ki [1, 2]: 12 nM
SMILES: Nc1nc(-c2ccccn2)c2cnn(Cc3ccccc3F)c2n1 [Example 33, 1-(2-fluorobenzyl)-4-(2-pyridyl)-1H-pyrazolo[3,4-d]pyrimidine-6-amine]

melting point: 276.8 to 277.2 °C
SMILES: Nc1nc(-c2ccco2)c2cnn(CC(=O)NCc3ccccc3)c2n1 [Example 34, 6-amino-N-benzyl-4-(2-furyl)-1H-pyrazolo[3,4-d]pyrimidin-1-ylacetamide]

melting point: 276.8 to 277.2 °C
SMILES: Nc1nc(-c2ccco2)c2cnn(CC(=O)Nc3ccccc3)c2n1 [Example 35, 6-amino-4-(2-furyl)-N-phenyl-1H-pyrazolo[3,4-d]pyrimidin-1-ylacetamide]

melting point: 247.9 to 249.4 °C
SMILES: Nc1nc(-c2ccco2)c2cnn(CC(=O)NCc3ccco3)c2n1 [Example 37, 6-amino-4-(2-furyl)-N-(2-furylmetyl)-1H-pyrazolo[3,4-d]pyrimidin-1-ylacetamide]

melting point: 267.4 to 271.5 °C
SMILES: COc1cccc(NC(=O)Cn2ncc3c(-c4ccco4)nc(N)nc32)c1 [Example 43, 6-amino-4-(2-furyl)-N-(3-methoxyphenyl)-1H-pyrazolo[3,4-d]pyrimidin-1-ylacetamide]

melting point: 276.2 to 278.5 °C
SMILES: Nc1nc(-c2ccco2)c2cnn(CC(=O)Nc3ccccc3F)c2n1 [Example 45, 6-amino-N-(2-fluorophenyl)-4-(2-furyl)-1H-pyrazolo[3,4-d]pyrimidin-1-ylacetamide]

melting point: 265.8 °C
SMILES: Cc1ccc(Cn2ncc3c(-c4ccn[nH]4)nc(N)nc32)cc1 [Example 50, 1-(4-methylbenzyl)-4-(1H-pyrazol-3-yl)-1H-pyrazolo[3,4-d]pyrimidine-6-amine]

Ki [1]: 71 nM
melting point: 287.9 °C
SMILES: Nc1nc(-c2nnc[nH]2)c2cnn(Cc3ccccc3F)c2n1 [Example 51, 1-(2-fluorobenzyl)-4-(1,2,4-triazol-3-yl)-1H-pyrazolo[3,4-d]pyrimidine-6-amine]

melting point: 193.3 to 193.4 °C
SMILES: Nc1cccc(Cn2ncc3c(-c4nnc[nH]4)nc(N)nc32)c1 [Example 60, 1-(3-aminobenzyl)-4-(1,2,4-triazol-3-yl)-1H-pyrazolo[3,4-d]pyrimidine-6-amine]

melting point: 193.3 to 193.4 °C
SMILES: Nc1nc(-c2nccs2)c2cnn(Cc3cccc([N+](=O)[O-])c3)c2n1 [Example 61, 1-(3-nitrobenzyl)-4-(2-thiazolyl)-1H-pyrazolo[3,4-d]pyrimidine-6-amine]

melting point: 177.8 to 178.3 °C
SMILES: Nc1cccc(Cn2ncc3c(-c4nccs4)nc(N)nc32)c1 [Example 62, 1-(3-aminobenzyl)-4-(2-thiazolyl)-1H-pyrazolo[3,4-d]pyrimidine-6-amine]
